Data as given in patent US20230085307A1, “PYRIDAZINONE COMPOUND AND HERBICIDE” (NISSAN CHEMICAL CORPORATION, priority 2019, published 2023).

Columns and labels:
velvetleaf [1] = assay: Test Example 4: herbicidal effect by soil treatment (Table 19, symbol M); type: in vivo, velvetleaf (Abutilon theophrasti)
Outline: (§1)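 Pre-emergence style soil spray: seeds under ~1.5 cm sterilized diluvial soil received a uniform coat of emulsion diluted to the predetermined herbicide amount. Greenhouse 25–30° C; readout at week three on previously defined criteria.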

rice flat sedge = assay: Test Example 3: herbicidal effect by foliage application, Wagner pot (Table 18, symbol E); type: in vivo, rice flat sedge (Cyperus iria); details: 320 g/ha
Outline: (§2)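 Plants were sown in alluvial soil held under 0.1–0.5 cm standing water and grown 14 days in a greenhouse at 25–30 °C. An emulsifiable formulation, water-diluted to the set dose, was then sprayed onto the foliage, and effects were scored three weeks later using previously defined criteria.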

redroot pigweed = assay: Test Example 4: herbicidal effect by soil treatment (Table 19, symbol N); type: in vivo, redroot pigweed (Amaranthus retroflexus)
Outline: as §1

persian speedwell [2] = assay: Test Example 4: herbicidal effect by soil treatment (Table 19, symbol R); type: in vivo, Persian speedwell (Veronica persica)
Outline: as §1

barnyard grass [3] = assay: Test Example 5: herbicidal effect by foliage application, plastic box (Table 20, symbol H); type: in vivo, barnyard grass (Echinochloa crus-galli); details: foliage application, 320 g/ha
Outline: (§3)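 Plants were sown into sterilized diluvial soil under about 1.5 cm cover and kept in a greenhouse at 25° C. to 30° C. Fourteen days on, foliage received an even spray of the diluted emulsion. Herbicidal or crop effect was judged three weeks afterwards.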

Chinese sprangletop = assay: Test Example 3: herbicidal effect by foliage application, Wagner pot (Table 18, symbol D); type: in vivo, chinese sprangletop (Leptochloa chinensis); details: 320 g/ha
Outline: as §2

southern crabgrass [4] = assay: Test Example 4: herbicidal effect by soil treatment (Table 19, symbol F); type: in vivo, southern crabgrass (Digitaria ciliaris)
Outline: as §1

blackgrass [5] = assay: Test Example 4: herbicidal effect by soil treatment (Table 19, symbol J); type: in vivo, blackgrass (Alopecurus myosuroides)
Outline: as §1

barnyard grass [6] = assay: Test Example 3: herbicidal effect by foliage application, Wagner pot (Table 18, symbol H); type: in vivo, barnyard grass (Echinochloa crus-galli); details: 320 g/ha
Outline: as §2

Italian ryegrass [7] = assay: Test Example 5: herbicidal effect by foliage application, plastic box (Table 20, symbol K); type: in vivo, Italian ryegrass (Lolium multiflorum); details: foliage application, 320 g/ha
Outline: as §3

green foxtail [8] = assay: Test Example 5: herbicidal effect by foliage application, plastic box (Table 20, symbol G); type: in vivo, green foxtail (Setaria viridis); details: foliage application, 320 g/ha
Outline: as §3

oval-leafed pondweed = assay: Test Example 1: herbicidal activity, application before weed generation under submerged conditions (Table 16, symbol C); type: in vivo, oval-leafed pondweed (Monochoria vaginalis)
Outline: (§4)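 Submerged Wagner pots (alluvial soil, 4 cm water) sown with weed seeds and planted with 2.5-leaf rice seedlings; emulsifiable concentrate diluted in water applied to water surface on sowing day. Held in greenhouse at 25-30 °C; injury scored 0-5 by herbicidal rate after three weeks.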

barnyard grass [9] = assay: Test Example 4: herbicidal effect by soil treatment (Table 19, symbol H); type: in vivo, barnyard grass (Echinochloa crus-galli)
Outline: as §1

persian speedwell [10] = assay: Test Example 5: herbicidal effect by foliage application, plastic box (Table 20, symbol R); type: in vivo, Persian speedwell (Veronica persica); details: foliage application, 320 g/ha
Outline: as §3

windgrass [11] = assay: Test Example 4: herbicidal effect by soil treatment (Table 19, symbol L); type: in vivo, windgrass (Apera spica-venti)
Outline: as §1

lambsquarters [12] = assay: Test Example 4: herbicidal effect by soil treatment (Table 19, symbol O); type: in vivo, lambsquarters (Chenopodium album)
Outline: as §1

velvetleaf [13] = assay: Test Example 5: herbicidal effect by foliage application, plastic box (Table 20, symbol M); type: in vivo, velvetleaf (Abutilon theophrasti); details: foliage application, 320 g/ha
Outline: as §3

lambsquarters [14] = assay: Test Example 5: herbicidal effect by foliage application, plastic box (Table 20, symbol O); type: in vivo, lambsquarters (Chenopodium album); details: foliage application, 320 g/ha
Outline: as §3

windgrass [15] = assay: Test Example 5: herbicidal effect by foliage application, plastic box (Table 20, symbol L); type: in vivo, windgrass (Apera spica-venti); details: foliage application, 320 g/ha
Outline: as §3

Japanese bulrush = assay: Test Example 1: herbicidal activity, application before weed generation under submerged conditions (Table 16, symbol B); type: in vivo, Japanese bulrush (Schoenoplectus juncoides)
Outline: as §4

late watergrass = assay: Test Example 1: herbicidal activity, application before weed generation under submerged conditions (Table 16, symbol A); type: in vivo, late watergrass (Echinochloa oryzicola)
Outline: as §4

blackgrass [16] = assay: Test Example 5: herbicidal effect by foliage application, plastic box (Table 20, symbol J); type: in vivo, blackgrass (Alopecurus myosuroides); details: foliage application, 320 g/ha
Outline: as §3

green foxtail [17] = assay: Test Example 4: herbicidal effect by soil treatment (Table 19, symbol G); type: in vivo, green foxtail (Setaria viridis)
Outline: as §1

Italian ryegrass [18] = assay: Test Example 4: herbicidal effect by soil treatment (Table 19, symbol K); type: in vivo, Italian ryegrass (Lolium multiflorum)
Outline: as §1

chickweed = assay: Test Example 4: herbicidal effect by soil treatment (Table 19, symbol P); type: in vivo, common chickweed (Stellaria media)
Outline: as §1

wild oat [19] = assay: Test Example 5: herbicidal effect by foliage application, plastic box (Table 20, symbol I); type: in vivo, wild oat (Avena fatua); details: foliage application, 320 g/ha
Outline: as §3

wild oat [20] = assay: Test Example 4: herbicidal effect by soil treatment (Table 19, symbol I); type: in vivo, wild oat (Avena fatua)
Outline: as §1

southern crabgrass [21] = assay: Test Example 5: herbicidal effect by foliage application, plastic box (Table 20, symbol F); type: in vivo, southern crabgrass (Digitaria ciliaris); details: foliage application, 320 g/ha
Outline: as §3

[22] = amount of applied herbicide 320 g/ha

SMILES: CCCC(=O)Oc1c(C)nn(C)c(=O)c1-c1c(-c2ccccc2OC)sc2cc(OC)c(Cl)cc12 [5-069]
- M: velvetleaf, herbicidal effect grade (velvetleaf [1]; [22]): 0 (Herbicidal rate of 5% or less (almost no effect))
- herbicidal effect on rice flat sedge (E) (rice flat sedge): 0 (Herbicidal rate of 5% or less (almost no effect))
- N: redroot pigweed, herbicidal effect grade (redroot pigweed; [22]): 2 (Herbicidal rate of 20% or more and less than 40%)
- R: persian speedwell, herbicidal effect grade (persian speedwell [2]; [22]): 0 (Herbicidal rate of 5% or less (almost no effect))
- herbicidal effect on barnyard grass (H) (barnyard grass [3]; three weeks after application): 3 (Herbicidal rate of 40% or more and less than 70%)
- herbicidal effect on Chinese sprangletop (D) (Chinese sprangletop): 0 (Herbicidal rate of 5% or less (almost no effect))
- F: southern crabgrass, herbicidal effect grade (southern crabgrass [4]; [22]): 0 (Herbicidal rate of 5% or less (almost no effect))
- J: blackgrass, herbicidal effect grade (blackgrass [5]; [22]): 0 (Herbicidal rate of 5% or less (almost no effect))
- herbicidal effect on barnyard grass (H) (barnyard grass [6]): 4 (Herbicidal rate of 70% or more and less than 90%)
- herbicidal effect on Italian ryegrass (K) (Italian ryegrass [7]; three weeks after application): 0 (Herbicidal rate of 5% or less (almost no effect))
- herbicidal effect on green foxtail (G) (green foxtail [8]; three weeks after application): 3 (Herbicidal rate of 40% or more and less than 70%)
- Herbicidal effect, C: oval-leafed pondweed (oval-leafed pondweed; [22]): 0 (Herbicidal rate of 5% or less (almost no effect))
- H: barnyard grass, herbicidal effect grade (barnyard grass [9]; [22]): 0 (Herbicidal rate of 5% or less (almost no effect))
- herbicidal effect on persian speedwell (R) (persian speedwell [10]; three weeks after application): 0 (Herbicidal rate of 5% or less (almost no effect))
- L: windgrass, herbicidal effect grade (windgrass [11]; [22]): 0 (Herbicidal rate of 5% or less (almost no effect))
- O: lambsquarters, herbicidal effect grade (lambsquarters [12]; [22]): 0 (Herbicidal rate of 5% or less (almost no effect))
- herbicidal effect on velvetleaf (M) (velvetleaf [13]; three weeks after application): 3 (Herbicidal rate of 40% or more and less than 70%)
- herbicidal effect on lambsquarters (O) (lambsquarters [14]; three weeks after application): 3 (Herbicidal rate of 40% or more and less than 70%)
- herbicidal effect on windgrass (L) (windgrass [15]; three weeks after application): 2 (Herbicidal rate of 20% or more and less than 40%)
- Herbicidal effect, B: Japanese bulrush (Japanese bulrush; [22]): 1 (Herbicidal rate of 5% or more and less than 20%)
- Herbicidal effect, A: late watergrass (late watergrass; [22]): 3 (Herbicidal rate of 40% or more and less than 70%)
- herbicidal effect on blackgrass (J) (blackgrass [16]; three weeks after application): 0 (Herbicidal rate of 5% or less (almost no effect))
- G: green foxtail, herbicidal effect grade (green foxtail [17]; [22]): 0 (Herbicidal rate of 5% or less (almost no effect))
- K: Italian ryegrass, herbicidal effect grade (Italian ryegrass [18]; [22]): 0 (Herbicidal rate of 5% or less (almost no effect))
- P: chickweed, herbicidal effect grade (chickweed; [22]): 0 (Herbicidal rate of 5% or less (almost no effect))
- herbicidal effect on wild oat (I) (wild oat [19]; three weeks after application): 0 (Herbicidal rate of 5% or less (almost no effect))
- I: wild oat, herbicidal effect grade (wild oat [20]; [22]): 0 (Herbicidal rate of 5% or less (almost no effect))
- herbicidal effect on southern crabgrass (F) (southern crabgrass [21]; three weeks after application): 4 (Herbicidal rate of 70% or more and less than 90%)

SMILES: Cc1nn(C)c(=O)c(-c2c(-c3ccc(F)cc3)sc3ccc(F)cc23)c1OC(=O)N1CCOCC1 [2-007]
- herbicidal effect rating, M: velvetleaf (velvetleaf [1]; 320 g/ha): 0 (Herbicidal rate of 5% or less (almost no effect))
- herbicidal effect on E (rice flat sedge), rating 0-5 (rice flat sedge): 3 (Herbicidal rate of 40% or more and less than 70%)
- herbicidal effect rating, N: redroot pigweed (redroot pigweed; 320 g/ha): 2 (Herbicidal rate of 20% or more and less than 40%)
- herbicidal effect rating, R: persian speedwell (persian speedwell [2]; 320 g/ha): 0 (Herbicidal rate of 5% or less (almost no effect))
- effect on barnyard grass (H) (barnyard grass [3]; 3 weeks after application): 0 (Herbicidal rate of 5% or less (almost no effect))
- herbicidal effect on D (Chinese sprangletop), rating 0-5 (Chinese sprangletop): 3 (Herbicidal rate of 40% or more and less than 70%)
- herbicidal effect rating, F: southern crabgrass (southern crabgrass [4]; 320 g/ha): 1 (Herbicidal rate of 5% or more and less than 20%)
- herbicidal effect rating, J: blackgrass (blackgrass [5]; 320 g/ha): 0 (Herbicidal rate of 5% or less (almost no effect))
- herbicidal effect on H (barnyard grass), rating 0-5 (barnyard grass [6]): 1 (Herbicidal rate of 5% or more and less than 20%)
- effect on Italian ryegrass (K) (Italian ryegrass [7]; 3 weeks after application): 0 (Herbicidal rate of 5% or less (almost no effect))
- effect on green foxtail (G) (green foxtail [8]; 3 weeks after application): 0 (Herbicidal rate of 5% or less (almost no effect))
- Herbicidal effect on C: oval-leafed pondweed (grade 0-5) (oval-leafed pondweed; 320 g/ha applied herbicide): 0 (Herbicidal rate of 5% or less (almost no effect))
- herbicidal effect rating, H: barnyard grass (barnyard grass [9]; 320 g/ha): 0 (Herbicidal rate of 5% or less (almost no effect))
- effect on persian speedwell (R) (persian speedwell [10]; 3 weeks after application): 1 (Herbicidal rate of 5% or more and less than 20%)
- herbicidal effect rating, L: windgrass (windgrass [11]; 320 g/ha): 0 (Herbicidal rate of 5% or less (almost no effect))
- herbicidal effect rating, O: lambsquarters (lambsquarters [12]; 320 g/ha): 0 (Herbicidal rate of 5% or less (almost no effect))
- effect on velvetleaf (M) (velvetleaf [13]; 3 weeks after application): 0 (Herbicidal rate of 5% or less (almost no effect))
- effect on lambsquarters (O) (lambsquarters [14]; 3 weeks after application): 0 (Herbicidal rate of 5% or less (almost no effect))
- effect on windgrass (L) (windgrass [15]; 3 weeks after application): 0 (Herbicidal rate of 5% or less (almost no effect))
- Herbicidal effect on B: Japanese bulrush (grade 0-5) (Japanese bulrush; 320 g/ha applied herbicide): 0 (Herbicidal rate of 5% or less (almost no effect))
- Herbicidal effect on A: late watergrass (grade 0-5) (late watergrass; 320 g/ha applied herbicide): 2 (Herbicidal rate of 20% or more and less than 40%)
- effect on blackgrass (J) (blackgrass [16]; 3 weeks after application): 0 (Herbicidal rate of 5% or less (almost no effect))
- herbicidal effect rating, G: green foxtail (green foxtail [17]; 320 g/ha): 2 (Herbicidal rate of 20% or more and less than 40%)
- herbicidal effect rating, K: Italian ryegrass (Italian ryegrass [18]; 320 g/ha): 0 (Herbicidal rate of 5% or less (almost no effect))
- herbicidal effect rating, P: chickweed (chickweed; 320 g/ha): 0 (Herbicidal rate of 5% or less (almost no effect))
- effect on wild oat (I) (wild oat [19]; 3 weeks after application): 0 (Herbicidal rate of 5% or less (almost no effect))
- herbicidal effect rating, I: wild oat (wild oat [20]; 320 g/ha): 0 (Herbicidal rate of 5% or less (almost no effect))
- effect on southern crabgrass (F) (southern crabgrass [21]; 3 weeks after application): 0 (Herbicidal rate of 5% or less (almost no effect))
